# From PubChem BioAssay (NCI)
#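 Growth conditions: 96-well plates. Treatment: test compound, 48 hours, 5 concentrations. Analysis: linear interpolation between bracketing concentrations; unreached endpoints set to highest concentration. Abbreviation: GI50, concentration required for 50% inhibition of growth. At the TGI there is no net growth.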
# Tests used:
# Experiment in all cases: NCI tumour cell line growth inhibition, 48 h
# [1] = tested on: 786-0 renal
# [2] = tested on: A498 renal
# [3] = tested on: A549 NSCLC
# [4] = tested on: ACHN renal
# [5] = tested on: BT-549 breast
# [6] = tested on: CAKI-1 renal
# [7] = tested on: CCRF-CEM leukemia
# [8] = tested on: COLO 205 colon
# [9] = tested on: DU-145 prostate
# [10] = tested on: HCC-2998 colon
# [11] = tested on: HCT-116 colon
# [12] = tested on: HCT-15 colon
# [13] = tested on: HL-60(TB) leukemia
# [14] = tested on: HOP-62 NSCLC
# [15] = tested on: HOP-92 NSCLC
# [16] = tested on: HS 578T breast
# [17] = tested on: HT29 colon
# [18] = tested on: IGROV1 ovarian
# [19] = tested on: K-562 leukemia
# [20] = tested on: KM12 colon
# [21] = tested on: LOX IMVI melanoma
# [22] = tested on: M14 melanoma
# [23] = tested on: MALME-3M melanoma
# [24] = tested on: MCF7 breast
# [25] = tested on: MDA-MB-231 breast
# [26] = tested on: MDA-MB-435
# [27] = tested on: MOLT-4 leukemia
# [28] = tested on: NCI-H226 lung
# [29] = tested on: NCI-H23 lung
# [30] = tested on: NCI-H460 lung
# [31] = tested on: NCI-H522 lung
# [32] = tested on: NCI/ADR-RES ovarian
# [33] = tested on: OVCAR-3 ovarian
# [34] = tested on: OVCAR-4 ovarian
# [35] = tested on: OVCAR-5 ovarian
# [36] = tested on: OVCAR-8 ovarian
# [37] = tested on: PC-3 prostate
# [38] = tested on: RPMI-8226 leukemia
# [39] = tested on: RXF 393 renal
# [40] = tested on: SF-268 CNS
# [41] = tested on: SF-295 CNS
# [42] = tested on: SF-539 CNS
# [43] = tested on: SK-MEL-2 melanoma
# [44] = tested on: SK-MEL-28 melanoma
# [45] = tested on: SK-MEL-5 melanoma
# [46] = tested on: SK-OV-3 ovarian
# [47] = tested on: SN12C renal
# [48] = tested on: SNB-19 CNS
# [49] = tested on: SNB-75 CNS
# [50] = tested on: SR leukemia
# [51] = tested on: SW-620 colon
# [52] = tested on: T-47D breast
# [53] = tested on: TK-10 renal
# [54] = tested on: U251 CNS
# [55] = tested on: UACC-257 melanoma
# [56] = tested on: UACC-62 melanoma
# [57] = tested on: UO-31 renal
# [58] = tested on: EKVX NSCLC
# [59] = tested on: MDA-N
compound,measurement,setting,value
c1cc(CNC23CC4CC(CC(C4)C2)C3)cc(C[N+](Cc2cccc(CNC34CC5CC(CC(C5)C3)C4)c2)(Cc2cccc(CNC34CC5CC(CC(C5)C3)C4)c2)Cc2cccc(CNC34CC5CC(CC(C5)C3)C4)c2)c1 (centres undefined),GI50,[1],3.55 µM
same,TGI,[1],7.75 µM
same,GI50,[2],4.98 µM
same,TGI,[2],29.5 µM
same,GI50,[3],8.91 µM
same,TGI,[3],36.4 µM
same,GI50,[4],3.65 µM
same,TGI,[4],8.92 µM
same,GI50,[5],4.27 µM
same,TGI,[5],11.6 µM
same,GI50,[6],5.36 µM
same,TGI,[6],19.6 µM
same,GI50,[7],6.1 µM
same,TGI,[7],209 µM
same,GI50,[8],4.57 µM
same,TGI,[8],13.1 µM
same,GI50,[9],6.16 µM
same,TGI,[9],19.3 µM
same,GI50,[10],5.11 µM
same,TGI,[10],22.2 µM
same,GI50,[11],3.04 µM
same,TGI,[11],8.42 µM
same,GI50,[12],4.59 µM
same,TGI,[12],16.4 µM
same,GI50,[13],3.64 µM
same,TGI,[13],11.3 µM
same,GI50,[14],11.1 µM
same,TGI,[14],42.1 µM
same,GI50,[15],4.74 µM
same,TGI,[15],12.8 µM
same,GI50,[16],8.01 µM
same,TGI,[16],49.4 µM
same,GI50,[17],3.58 µM
same,TGI,[17],11.8 µM
same,GI50,[18],3.7 µM
same,TGI,[18],9.8 µM
same,GI50,[19],6.1 µM
same,TGI,[19],151 µM
same,GI50,[20],6.92 µM
same,TGI,[20],28.2 µM
same,GI50,[21],2.11 µM
same,TGI,[21],5.3 µM
same,GI50,[22],3.36 µM
same,TGI,[22],8.69 µM
same,GI50,[23],3.51 µM
same,TGI,[23],7.77 µM
same,GI50,[24],4.46 µM
same,TGI,[24],25.9 µM
same,GI50,[25],8.73 µM
same,TGI,[25],31 µM
same,GI50,[26],3.45 µM
same,TGI,[26],8.81 µM
same,GI50,[27],5.52 µM
same,TGI,[27],17.1 µM
same,GI50,[28],11.5 µM
same,TGI,[28],45.3 µM
same,GI50,[29],6.38 µM
same,TGI,[29],26.6 µM
same,GI50,[30],4.97 µM
same,TGI,[30],11.3 µM
same,GI50,[31],3.06 µM
same,TGI,[31],6.49 µM
same,GI50,[32],6.01 µM
same,TGI,[32],19 µM
same,GI50,[33],4.35 µM
same,TGI,[33],11.8 µM
same,GI50,[34],4.85 µM
same,TGI,[34],22.8 µM
same,GI50,[35],4.09 µM
same,TGI,[35],11.5 µM
same,GI50,[36],8.64 µM
same,TGI,[36],35.4 µM
same,GI50,[37],5.86 µM
same,TGI,[37],21.6 µM
same,GI50,[38],5.51 µM
same,TGI,[38],16.7 µM
same,GI50,[39],3.39 µM
same,TGI,[39],6.54 µM
same,GI50,[40],6.39 µM
same,TGI,[40],22.6 µM
same,GI50,[41],12.7 µM
same,TGI,[41],43.6 µM
same,GI50,[42],4.23 µM
same,TGI,[42],10.3 µM
same,GI50,[43],4.44 µM
same,TGI,[43],13.4 µM
same,GI50,[44],6.94 µM
same,TGI,[44],33.1 µM
same,GI50,[45],6.36 µM
same,TGI,[45],26.3 µM
same,GI50,[46],21.4 µM
same,TGI,[46],47.7 µM
same,GI50,[47],5.9 µM
same,TGI,[47],18.5 µM
same,GI50,[48],8.05 µM
same,TGI,[48],30.4 µM
same,GI50,[49],9.78 µM
same,TGI,[49],40.7 µM
same,GI50,[50],6.22 µM
same,TGI,[50],209 µM
same,GI50,[51],5.23 µM
same,TGI,[51],16.5 µM
same,GI50,[52],5.59 µM
same,TGI,[52],28.1 µM
same,GI50,[53],7.75 µM
same,TGI,[53],30 µM
same,GI50,[54],4.68 µM
same,TGI,[54],11.3 µM
same,GI50,[55],12.9 µM
same,TGI,[55],45.3 µM
same,GI50,[56],4.86 µM
same,TGI,[56],15.4 µM
same,GI50,[57],3.41 µM
same,TGI,[57],8.21 µM
O=Cc1ccc2c(c1)CC1(Cc3ccccc3C1)C2,TGI,[1],29.9 µM
same,TGI,[2],83.7 µM
same,TGI,[3],> 100 µM
same,TGI,[4],65.7 µM
same,TGI,[7],25.5 µM
same,TGI,[8],54.2 µM
same,TGI,[58],> 100 µM
same,TGI,[10],> 100 µM
same,TGI,[11],> 100 µM
same,TGI,[12],73.4 µM
same,TGI,[13],39.5 µM
same,TGI,[14],34.2 µM
same,TGI,[15],32.9 µM
same,TGI,[16],> 100 µM
same,TGI,[17],51.2 µM
same,TGI,[18],46.1 µM
same,TGI,[19],44.9 µM
same,TGI,[20],> 100 µM
same,TGI,[21],37.9 µM
same,TGI,[22],26.8 µM
same,TGI,[23],36.3 µM
same,TGI,[24],66.4 µM
same,TGI,[25],30.4 µM
same,TGI,[26],37.6 µM
same,TGI,[59],38.9 µM
same,TGI,[27],42.9 µM
same,TGI,[28],73.2 µM
same,TGI,[29],50 µM
same,TGI,[31],> 100 µM
same,TGI,[32],79.8 µM
same,TGI,[33],28.3 µM
same,TGI,[34],48.7 µM
same,TGI,[35],> 100 µM
same,TGI,[36],39 µM
same,TGI,[37],59.6 µM
same,TGI,[38],53.4 µM
same,TGI,[39],> 100 µM
same,TGI,[41],94.5 µM
same,TGI,[42],33.2 µM
same,TGI,[43],27.1 µM
same,TGI,[45],29.4 µM
same,TGI,[46],> 100 µM
same,TGI,[47],34.4 µM
same,TGI,[50],18.4 µM
same,TGI,[52],> 100 µM
same,TGI,[53],> 100 µM
same,TGI,[54],36.2 µM
same,TGI,[55],44.1 µM
same,TGI,[56],41.4 µM
same,TGI,[57],58.7 µM
